From patent US7423009B2, “Method for treatment of kidney diseases” (Kowa Company, Ltd., priority 2002, dated 2008)

System: nephritis induced by anti-GBM antiserum in wild type mouse
Assay: Nephritis induced by anti-GBM antiserum in wild type mice: amount of albumin in urine
Type: in vivo
Details: for amount of albumin in urine: urine collected 18 hours after final administration
Description: (§1) Anti-GBM antiserum was administered to the wild type mice to induce nephritis, the mice were classified into three groups and the first group was administered with a peptide having an amino acid sequence of SLIGRL which is a selective stimulant for PAR-2 while the second group was administered with prednisolone which has been used as a treating agent for nephritis. In each group, administration was conducted once daily for consecutive seven days. The third group was a group which was not treated with a drug (control group). Further, for comparison, another untreated group where no anti-GBM antiserum was administered was prepared as the fourth group (in each group, n=6).
Immediately after the final administration of the drug solution, urine was collected for 18 hours and the amount of albumin in urine was measured.
as §1, with “In the same manner, anti-GBM” for “Anti-GBM”, “ASKH95” for “a peptide having an amino acid sequence of SLIGRL”, “group)” for “group). Further, for comparison, another untreated group where no anti-GBM antiserum was administered was prepared as the fourth group”
Nephritis was induced by a single administration of […] having about 16-fold of titer of antibody in an amount of 0.4 ml per mouse into tail vein (Jpn. J. Pharmacol., 33, 1145-1154, 1983). With regard to the amount of albumin in urine used as an index for nephritis, the amount of albumin in urine collected for 18 hours using a metabolic cage (manufactured by Sugiyamagen) was determined using an ELISA kit manufactured by Exocel and expressed in terms of μg/18 hours/100 g body weight. The resulting data were analyzed by a Student t-test and evaluated.
(§2) Anti-GBM antiserum was administered to a wild type mouse and, immediately after that, 0.3 μmol/kg of SLIGRL which is a selective stimulant for PAR-2 dissolved in a phosphate buffer or 3 mg/kg of prednisolone suspended in 0.5% methyl cellulose solution was administered thereto once daily for consecutive seven days (in each group, n=6). SLIGRL was administered to tail vein with a dose of 1 ml/100 g body weight at the rate of 0.1 ml/second. Prednisolone was compulsorily administered per os with a dose of 1 ml/100 g body weight. As a control, a group which was not treated with a drug (control group) was set up. As from immediately after the final administration of the drug solution, urine was collected for 18 hours using a metabolic cage and the amount of albumin in urine was measured.
as §2, with “In the same manner as example 3, anti-GBM” for “Anti-GBM”, “10 mg/kg” for “0.3 μmol/kg”, “ASKH95” for “SLIGRL”, “measured. Incidentally, ASKH95 is synthesized according to the literature (J. Clin. Invest. 111, 35-41, 2003), and used.” for “measured.”

Molecule: 2-furoyl-LIGKV-OH [ASKH95]
- effect on amount of albumin in urine compared with control group (in words) (Example 4, ASKH95 10 mg/kg to tail vein once daily for seven days): decreased significantly
- amount of albumin in urine (Example 4, ASKH95 10 mg/kg to tail vein once daily for seven days, control group 81319.0±8884.3): 34709.6±8703.3 μg/18 hours/100 g body weight

Molecule: C[C@]12C=CC(=O)C=C1CC[C@@H]1[C@@H]2[C@@H](O)C[C@@]2(C)[C@H]1CC[C@]2(O)C(=O)CO [prednisolone]
- amount of albumin in urine reduced to an extent of % of the control group (Example 3, prednisolone 3 mg/kg per os once daily for seven days, not a significant suppression): 52.7%
- amount of albumin in urine (Example 3, prednisolone 3 mg/kg per os once daily for seven days, control group 3528.5±1238.6): 1670.6±579.4 μg/18 hours/100 g body weight
- effect on amount of albumin in urine compared with control group (in words) (Example 4, prednisolone 3 mg/kg per os once daily for seven days): almost no effect
- amount of albumin in urine (Example 4, prednisolone 3 mg/kg per os once daily for seven days, control group 81319.0±8884.3): 75692.1±12846.9 μg/18 hours/100 g body weight

Molecule: SLIGRL
- amount of albumin in urine (Example 3, SLIGRL 0.3 μmol/kg to tail vein once daily for seven days, control group 3528.5±1238.6): 104.2±54.0 μg/18 hours/100 g body weight
- decrease of amount of albumin in urine (Example 3, SLIGRL 0.3 μmol/kg to tail vein once daily for seven days, versus control group, significant): 97.0%
